Measurements reported in paper PMC3048735 (The Journal of Biological Chemistry, 2011).

Molecular target: T1, TryP (TbTryP) (Trypanosoma brucei, UniProt Q71RY2)
T1 sequence (Q71RY2 1-199): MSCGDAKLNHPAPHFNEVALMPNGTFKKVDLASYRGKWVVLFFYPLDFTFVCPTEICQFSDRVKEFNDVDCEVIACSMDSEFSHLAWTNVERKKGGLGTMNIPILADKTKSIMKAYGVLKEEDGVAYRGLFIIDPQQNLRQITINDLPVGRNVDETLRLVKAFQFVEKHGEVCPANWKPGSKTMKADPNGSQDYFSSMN
Test: TryP-limited coupled peroxidase assay, NADPH consumption at […] nm
Format: biochemical

- IC50: 14.1 ± 0.8 µM
Structure (SMILES): O=C1C=CC(O)(c2nc3ccccc3s2)C=C1 [compound 1, PMX464]
